Experimental findings from patent publication US10710986B2, “PD-1/PD-L1 inhibitors” (Gilead Sciences, Inc., priority 2018, dated 2020) are described below.

As usually defined, the IC50 is the concentration needed to halve the response being measured.

Chain of PD-1/PD-L1 (Q9NZQ7 19-238): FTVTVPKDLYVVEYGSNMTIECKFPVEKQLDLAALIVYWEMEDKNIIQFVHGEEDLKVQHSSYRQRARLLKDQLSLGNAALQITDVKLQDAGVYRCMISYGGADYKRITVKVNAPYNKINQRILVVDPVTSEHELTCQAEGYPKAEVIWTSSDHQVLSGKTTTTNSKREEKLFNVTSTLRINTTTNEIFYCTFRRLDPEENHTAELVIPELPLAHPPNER

This assay has as its target PD-1/PD-L1 (Homo sapiens (Human), UniProt Q9NZQ7). Description: PD-1/PD-L1 biochemical protein-protein interaction assay (ALPHA). As to conditions: 0.3 nM His tagged PD-L1, 2.5 nM biotinylated Fc-PD-1, 60 minutes at 25° C., read-out: IC50 PD-L1-PD1.
With `COc1nc(-c2cccc(-c3cccc(-c4cnc(CN5C[C@@H](O)[C@@H](O)C5)c(OC)n4)c3Cl)c2Cl)cnc1CN1C[C@@H](O)[C@@H](O)C1` [compound 519], the IC50 turned out to be 277 pM.

For the compound `COc1nc(-c2cccc(-c3cccc(-c4cnc(C5=NCC(O)CN5)c(OC)n4)c3Cl)c2Cl)cnc1C1=NCC(O)CN1` (centres unmarked) [compound 128], the IC50 worked out at 557 pM.

Turning to `COc1nc(-c2cccc(-c3cccc(-c4cnc(CN5CC6(C5)CN(C(C)=O)C6)c(OC)n4)c3Cl)c2Cl)cnc1CNC[C@H]1CCC(=O)N1` [compound 192], the 50% inhibitory concentration (IC50) turned out to be 156 pM.

Turning to `COc1nc(-c2cc(F)cc(-c3cc(F)cc(-c4cnc(CNC[C@@H]5CCC(=O)N5)c(OC)n4)c3Cl)c2Cl)cnc1CNC[C@@H]1CCC(=O)N1` [compound 397], the IC50 was 561 pM.

As to `COc1nc(-c2cccc(-c3cccc(-c4cnc(CNC[C@@H]5CCC(=O)N5)c(OC)n4)c3Cl)c2Cl)cnc1CNCc1cccn(C)c1=O` [compound 305], the IC50 was 244 pM.

Consider `COc1nc(-c2cccc(-c3cccc(-c4cnc(CN5CC[C@@H](C(=O)O)C5)c(OC)n4)c3Cl)c2Cl)cnc1CNC[C@@H]1CCC(=O)N1` [compound 552], for which the IC50 came out at 144 pM.

`COc1nc(-c2cccc(-c3cccc(-c4cnc(CN5CC6(CCC(=O)N6)C5)c(OC)n4)c3Cl)c2F)cnc1CN1CC2(CCC(=O)N2)C1` [compound 1]: the IC50 turned out to be 80 pM.

Consider `COc1nc(-c2cccc(-c3cccc(-c4cnc5c(CN6CC7(C6)CN(C(C)=O)C7)cn(C)c5c4)c3Cl)c2Cl)cnc1CN1CC2(C1)CN(C(C)=O)C2` [compound 451], for which the concentration for half-maximal inhibition (IC50) was found to be 101 pM.

`COc1nc(-c2cccc(-c3cccc(-c4cnc(CNC[C@@H]5CCC(=O)N5)c(OC)n4)c3Cl)c2Cl)ccc1CNCc1nc(=O)o[nH]1` [compound 161]: the IC50 amounted to 167 pM.

As for `COc1nc(-c2cccc(-c3cccc(-c4cnc(CNC(C)(C)CNC(C)=O)c(OC)n4)c3Cl)c2Cl)cnc1CNC[C@@H]1CCC(=O)N1` [compound 375], the IC50 was determined as 459 pM.

Consider `COc1nc(-c2cccc(-c3cccc(-c4cnc(CNC[C@H]5C[C@H](O)C5)c(OC)n4)c3Cl)c2Cl)cnc1CNC[C@H]1C[C@H](O)C1` [compound 242], for which the IC50 came out at 140 pM.

In the case of `COc1nc(-c2cccc(-c3cccc(-c4cnc(CNC[C@@H]5CCC(=O)N5)c(OC)n4)c3Cl)c2Cl)cnc1CNCCc1cnccn1` [compound 521], the IC50 came out at 71 pM.

Regarding `COc1nc(-c2cccc(-c3cccc(-c4cnc(CN5CC(O)(CO)C5)c(OC)n4)c3Cl)c2Cl)cnc1CNC[C@@H]1CCC(=O)N1` [compound 253], the IC50 was found to be 90 pM.

As to `COc1nc(-c2cccc(-c3cccc(-c4cnc(CNC[C@H]5C[C@H](O)C5)c(OC)n4)c3Cl)c2Cl)cnc1CNC[C@@H]1CCC(=O)N1` [compound 275], the IC50 turned out to be 64 pM.

With `COc1nc(-c2cccc(-c3cccc(-c4cnc(CN5CC6(CNC(=O)C6)C5)c(OC)n4)c3Br)c2F)cnc1CN1CC2(CNC(=O)C2)C1` [compound 393], the IC50 is 2230 pM.

Take `COc1nc(-c2cccc(-c3cccc(-c4cnc(CNC[C@@H]5CCC(=O)N5)c(OC5CC5)n4)c3Cl)c2Cl)ccc1CNC[C@@H]1CCC(=O)N1` [compound 638]: the IC50 was 79 pM.

For `COc1nc(-c2cccc(-c3cccc(-c4cnc(CNC[C@@H]5CCC(=O)N5)c(OC)n4)c3Cl)c2Cl)cnc1CNCC1CCS(=O)(=O)N1` (some centres unmarked) [compound 306], the IC50 turned out to be 245 pM.

As to `COc1nc(-c2cccc(-c3cccc(-c4cnc(CN5CCC(C(N)=O)CC5)c(OC)n4)c3Cl)c2Cl)cnc1CNC[C@@H]1CCC(=O)N1` [compound 508], the half-maximal inhibitory concentration (IC50) amounted to 84 pM.

As for `COc1nc(-c2cccc(-c3cccc(-c4cnc(CNC[C@@H]5CCC(=O)N5)c(OC)n4)c3Cl)c2F)cnc1CNC[C@@H]1CCC(=O)N1` [compound 6], the IC50 turned out to be 99 pM.

On to `COc1nc(-c2cccc(-c3cccc(-c4cnc(CNC5CCC6(CNC(=O)C6)C5)c(OC)n4)c3Cl)c2Cl)cnc1CNC[C@H]1CCC(=O)N1` (some centres unmarked) [compound 202], for which the IC50 is 144 pM.

Consider `COc1nc(-c2cccc(-c3cccc(-c4cnc(CNC[C@@H]5CCC(=O)N5)c(OC)n4)c3Cl)c2Cl)cnc1CNCCC1CNC(=O)C1` (some centres unmarked) [compound 235], for which the IC50 turned out to be 106 pM.

`COc1nc(-c2cccc(-c3cccc(-c4cnc(CNC[C@@H]5CCC(=O)N5)c(OC)n4)c3F)c2Cl)ccc1CNC[C@@H]1CCC(=O)N1` [compound 614]: the IC50 is 79 pM.

For the compound `COc1nc(-c2cccc(-c3cccc(-c4cnc(CN[C@H]5C[C@@H](C(N)=O)C5)c(OC)n4)c3Cl)c2Cl)ccc1CNC[C@@H]1CNC(=O)C1` [compound 639], the IC50 stood at 66 pM.

Regarding `COc1nc(-c2cccc(-c3cccc(-c4cnc(CNC[C@@H]5CCC(=O)N5)cn4)c3Cl)c2Cl)ccc1CNC[C@@H]1CCC(=O)N1` [compound 440], the IC50 was found to be 1870 pM.

For `COc1nc(-c2cccc(-c3cccc(-c4cnc(CN5CCC(C(=O)N(C)C)C5)c(OC)n4)c3Cl)c2Cl)cnc1CNC[C@@H]1CCC(=O)N1` (some centres unmarked) [compound 534], the IC50 amounted to 299 pM.

As for `CNc1nc(-c2cccc(-c3cccc(-c4cnc(CN5CC6(CNC(=O)C6)C5)c(OC)n4)c3Cl)c2Cl)cnc1CN1CC2(CNC(=O)C2)C1` [compound 61], the concentration for half-maximal inhibition (IC50) came out at 70 pM.

For the compound `COc1nc(-c2cccc(-c3cccc(-c4cnc(CNC5CCOCC5)c(OC)n4)c3Cl)c2Cl)cnc1CNC[C@@H]1CCC(=O)N1` [compound 509], the IC50 is 106 pM.

As for `COc1nc(-c2cccc(-c3cccc(-c4cnc(CN5CC(C(N)=O)C5)c(OC)n4)c3Cl)c2Cl)cnc1CNC[C@@H]1CCC(=O)N1` [compound 13], the IC50 was 482 pM.

`COc1nc(-c2cccc(-c3cccc(-c4cnc(CN5CCC(c6ccccn6)C5)c(OC)n4)c3Cl)c2Cl)cnc1CNC[C@@H]1CCC(=O)N1` (some centres unmarked) [compound 406]: the 50% inhibitory concentration (IC50) is 280 pM.

Consider `CCO[C@H]1C[C@H](NCc2ncc(-c3cccc(-c4cccc(-c5cnc(CNC[C@@H]6CCC(=O)N6)c(OC)n5)c4Cl)c3Cl)nc2OC)C1` [compound 233], for which the IC50 was determined as 451 pM.

Turning to `COc1cc(-c2cccc(-c3cccc(-c4cnc(CN)c(OC)n4)c3Cl)c2Cl)ccc1CN` [compound 122], the IC50 worked out at 1690 pM.

Consider `COC(=O)NC1CCN(Cc2ncc(-c3cccc(-c4cccc(-c5cnc(CNC[C@@H]6CCC(=O)N6)c(OC)n5)c4Cl)c3Cl)nc2OC)C1` (some centres unmarked) [compound 188], for which the half-inhibitory concentration (IC50) was 120 pM.

With `COc1nc(-c2cccc(-c3cccc(-c4cnc(CN5CCC6(CC(CO)C6)C5)c(OC)n4)c3Cl)c2Cl)cnc1CNC[C@@H]1CCC(=O)N1` (some centres unmarked) [compound 298], the IC50 stood at 181 pM.

Regarding `COc1nc(-c2cccc(-c3cccc(-c4cnc5c(CN6CC7(CCC(=O)N7)C6)cn(C)c5n4)c3Cl)c2Cl)cnc1CN1CC2(CCC(=O)N2)C1` [compound 613], the IC50 is 182 pM.

In the case of `COc1nc(-c2cccc(-c3cccc(-c4cnc([C@@H](C)N)c(OC)n4)c3Cl)c2Cl)cnc1[C@@H](C)N` [compound 386], the IC50 worked out at 879 pM.

Regarding `COc1nc(-c2cccc(-c3cccc(-c4cnc(CN5CC[C@H](O)C5)c(OC)n4)c3Cl)c2Cl)cnc1CN1CC[C@H](O)C1` [compound 132], the IC50 amounted to 753 pM.

As for `COc1nc(-c2cccc(-c3cccc(-c4cnc(CNC[C@@H]5CCC(=O)N5)c(OC)n4)c3Cl)c2Cl)ccc1CN1CC(C)(CO)C1` [compound 156], the IC50 stood at 84 pM.

Consider `COCCNCc1ncc(-c2cccc(-c3cccc(-c4cnc(CNC[C@@H]5CCC(=O)N5)c(OC)n4)c3Cl)c2Cl)nc1OC` [compound 340], for which the IC50 stood at 118 pM.
